Patent US20210169959A1, “TERMINALIA FERDINANDIANA EXTRACT AND PRODUCTS CONTAINING EXTRACT OF TERMINALIA FERDINANDIANA FOR ANTIMICROBIAL OR ANTIBACTERIAL APPLICATIONS” (RISING PHOENIX INDUSTRIES PTY LTD, priority 2017, published 2021)
Converted amounts (≈) assume the structure as drawn. “And” between values parts separate entries of the source, which are not always exact repeats. Equal entries are not always repeated. Where two headings read alike, the source gives them in different places.

Tests used:
[1] = system: Giardia duodenalis trophozoites; test: G. duodenalis trophozoite proliferation (strain not specified or several strains together); format: cell-based; conditions: for inhibition at 300 µg/mL: Giardia duodenalis; for inhibition at 300 µg/mL / inhibition of trophozoite proliferation: pure compounds at 300 μg/mL; for IC50: compound alone, over the different strains
[2] = system: Giardia duodenalis trophozoites, sheep S2 strain; test: G. duodenalis trophozoite proliferation, sheep S2 strain; conditions: for IC50 / IC50 Single Compound: compound alone; for Class of Interaction / ΣFIC50: in combination with ascorbic acid
[3] = system: Giardia duodenalis trophozoites, ATCC203333; test: G. duodenalis trophozoite proliferation, ATCC203333 (metronidazole sensitive); conditions: for Class of Interaction / ΣFIC50: in combination with ascorbic acid
[4] = system: Giardia duodenalis trophozoites, ATCC PRA-251; test: G. duodenalis trophozoite proliferation, ATCC PRA-251 (metronidazole resistant); conditions: for IC50: read-out: IC50 Single Compound; for inhibition of the metronidazole resistant strain (in words): pure compounds at 300 μg/mL; for Class of Interaction / ΣFIC50: in combination with ascorbic acid
human dermal fibroblast = conditions: for Toxicity Compound/ascorbic acid combination HDF: in combination with ascorbic acid
Artemia nauplii = conditions: for Toxicity Compound Alone ALA: 24 hours exposure; for Toxicity Compound/ascorbic acid combination ALA: in combination with ascorbic acid
Bacillus anthracis = test: microbe, parasite or virus in culture; format: cell-based; conditions: Bacillus anthracis, read-out: zones of inhibition
Clostridium perfringens = test: microbe, parasite or virus in culture; format: cell-based; conditions: Clostridium perfringens, read-out: zones of inhibition
[5] = system: Artemia franciscana nauplii; conditions: in vivo
[6] = metronidazole sensitive G. duodenalis strain
[7] = Giardia duodenalis, in Ovis aries, read-out: IC50 Single Compound, Sheep S2 Strain
[8] = Giardia duodenalis, ATCC203333, read-out: IC50 Single Compound
[9] = compound alone, 24 hours exposure
[10] = all three G. duodenalis strains
[11] = read-out: IC50 Single Compound, Sheep S2 Strain
[12] = read-out: IC50 Single Compound, ATCC203333, compound alone

Compound	IC50 [2, 7]	IC50 [3, 8]	IC50 ([4]; Giardia duodenalis)	Toxicity Compound Alone HDF (human dermal fibroblast; [9])	Toxicity Compound/ascorbic acid combination HDF (human dermal fibroblast)	Toxicity Compound Alone ALA (Artemia nauplii)	Toxicity Compound/ascorbic acid combination ALA (Artemia nauplii)	inhibition of trophozoite proliferation [1, 10]	IC50 Single Compound ([2]; Sheep S2 Strain)	Class of Interaction ([2]; Sheep S2 Strain)	ΣFIC50 ([2]; Sheep S2 Strain)	IC50 [2, 11]	IC50 Single Compound ([3]; ATCC203333, compound alone)	Class of Interaction ([3]; ATCC203333)	ΣFIC50 ([3]; ATCC203333)	IC50 [3, 12]	IC50 Single Compound ([4]; ATCC PRA-251, compound alone)	Class of Interaction ([4]; ATCC PRA-251)	ΣFIC50 ([4]; ATCC PRA-251)	IC50 ([4]; ATCC PRA-251, compound alone)	also measured
O=C1O[C@H]([C@@H](O)CO)C(O)=C1O [Ascorbic acid, ascorbic acid]	1870 µg/mL and 10.6 mM	1910 µg/mL and 10.8 mM	2850 µg/mL and 16.2 mM																		inhibition at 300 µg/mL [1, 6]: ~15%; inhibition of the metronidazole resistant strain (in words) [4]: ineffective inhibitors
O=C(O)C[C@H](C(=O)O)[C@H]1c2c(cc(O)c(O)c2O)C(=O)O[C@@H]1C(=O)O [Chebulic acid, chebulic acid]				380 µg/mL	375 µg/mL	165 µg/mL	224 µg/mL	~40%	1283 µg/mL (≈ 3.6 mM)	Additive	0.56	3.6 mM	985 µg/mL (≈ 2.76 mM)	Additive	0.6	2.76 mM	1220 µg/mL (≈ 3.42 mM)	Additive	0.52	3.42 mM	
O=C(O)[C@H]1O[C@@H](Oc2cccc(O)c2O)[C@H](O)[C@@H](O)[C@@H]1O [DPGA, 2,3-dihydroxyphenyl B-D-glucopyranosiduronic acid]				CND	>500 µg/mL	CND	>500 µg/mL	100%	47 µg/mL (≈ 0.156 mM)	Synergy	0.11	0.156 mM	38 µg/mL (≈ 0.126 mM)	Synergy	0.18	0.126 mM	72 µg/mL (≈ 0.238 mM)	Synergy	0.18	0.238 mM	ratios producing synergistic inhibition (isobologram) ([1]; DPGA:ascorbic acid combinations, metronidazole sensitive strains): ≤ 60 % DPGA; IC50 as share of the IC50 of ascorbic acid ([1]; components tested separately): approximately 5%; potency relative to ascorbic acid ([1]; components tested separately): ~20 times; IC50 [1]: 38 to 72 µg/mL; IC50 ([1]; read-out: IC50): ≥ 0.126 mM and 0.126 to 0.238 mM; ratios with synergistic interaction (isobologram) ([4]; DPGA:ascorbic acid combinations, metronidazole resistant strain): 30-50 % DPGA
O=C(O)c1cc(O)c(O)c(O)c1 [Gallic acid, gallic acid]	1150 µg/mL and 6.79 mM	1370 µg/mL and 8.04 mM	1260 µg/mL and 7.38 mM			132 µg/mL	147 µg/mL		1156 µg/mL (≈ 6.8 mM)	Synergy	0.15			Synergy	0.38			Synergy	0.32		Toxicity Compound Alone HDF (human dermal fibroblast; human, 24 h): 320 µg/mL; inhibition at 300 µg/mL [1, 10]: ~50%; ratios inducing synergistic responses (isobologram) ([1]; gallic acid:ascorbic acid combinations, all three strains): 30-60 % gallic acid
O=C1O[C@@H]([C@H](O)[C@H](O)CO)[C@@H](O)[C@H]1O [Glucohepatonic acid lactone, glucohepatonic acid-1,4-lactone]				CND	>500 µg/mL	CND	>500 µg/mL		1746 µg/mL (≈ 8.39 mM)	independent (independent (ΣFIC50 > 1.0-4.0))	1.19	9.91 mM	2255 µg/mL (≈ 10.8 mM)	Independent	1.57	12.8 mM	3536 µg/mL (≈ 17 mM)	Independent	1.25	20.1 mM	inhibition of trophozoite proliferation [1, 6]: ~30%; inhibition of the metronidazole resistant strain (in words) [4]: ineffective inhibitors
O=C1O[C@H](CO)[C@@H](O)[C@H](O)[C@H]1O [Gluconolactone, gluconolactone]						CND		did not significantly affect the growth													Toxicity Compound Alone HDF (human dermal fibroblast): CND
Cc1cc(OCCCC(C)(C)C(=O)O)c(C)cc1O [HMDP, 5-(4-hydroxy-2,5-dimethylphenoxy)-2,2-dimethyl-pentanoic acid]	1840 µg/mL and 6.89 mM	1580 µg/mL and 5.96 mM	2030 µg/mL and 7.63 mM	CND	>500 µg/mL	CND	>500 µg/mL			Additive	0.69			Additive	0.81			Independent	1.1		inhibition at 300 µg/mL [1, 10]: ~20%
c1ncc2[nH]cnc2n1 [Purine, purine]						CND		did not significantly affect the growth													Toxicity Compound Alone HDF (human dermal fibroblast): CND
O=C(O)[C@]1(O)C[C@@H](O)[C@@H](O)[C@H](O)C1 [Quinic acid, quinic acid]	1170 µg/mL and 6.1 mM	1430 µg/mL and 7.43 mM	1760 µg/mL and 9.13 mM			CND	>500 µg/mL			Additive	0.51			Additive	0.73			Additive	0.95		Toxicity Compound Alone HDF (human dermal fibroblast): CND; inhibition at 300 µg/mL [1, 10]: ~30%
O=C1O[C@H](CO)[C@@H](O)[C@H]1O [Ribolactone, ribonolactone]				CND		CND		did not significantly affect the growth													
CC1(C)S[C@@H]2[C@H](NC(=O)[C@H](N)c3ccccc3)C(=O)N2[C@H]1C(=O)O [ampicillin]																					zone of inhibition at 10 µg/disc (Bacillus anthracis): 10 ± 0.7 mm; zone of inhibition at 10 µg/disc (Clostridium perfringens): 13 ± 1 mm
[K+].[K+].[O]=[Cr](=[O])([O-])[O][Cr](=[O])(=[O])[O-] [potassium dichromate, Potassium dichromate, reference compound]				42 µg/mL		37 µg/mL															mortality [5]: 100%; onset of nauplii death (time of exposure) [5]: ≤ 3 h
eujavonic acid				CND	>500 µg/mL	CND	>500 µg/mL	~20%	1438 µg/mL	Additive	0.58	6.04 mM	1683 µg/mL	Additive	0.64	7.07 mM	1850 µg/mL	Additive	0.72	7.77 mM	
